Here are results for one compound from patent US20220380801A1, “TRIPARTITE SYSTEMS FOR PROTEIN DIMERIZATION AND METHODS OF USE” (priority 2019, published 2022).

Holding throughout (assay type): cell-based, human
Assay [1] has as its system HCT116 cells stably expressing the PRSIM-based kill switch. The assay is described as follows: Kill switch cell viability (phase contrast). The note with it: 100 nM simeprevir, wt kill switch. As to the method:
(§1) HCT116 and HT29 transduced cells were generated following the same protocol with exception of using McCoy's 5A medium+10% foetal bovine serum as growth medium, supplemented with 2 μg/ml puromycin for selection of transduced cells.
(§2) HEK293, HCT116 or HT29 cells stably expressing the PRSIM-based kill switch fusion protein (SEQ ID NO: 223) or HEK293 cells stably expressing the PRSIM kill switch S196A mutant fusion protein (SEQ ID NO: 230) were plated onto collagen-coated 96-well plates and 24 h later treated with 100 nM simeprevir. Phase contrast images were acquired at various timepoints using 10× or 20× objectives on an Incucyte Zoom (EssenBioscience).

For assay [2], the system named is HT29 cells stably expressing the PRSIM-based kill switch. The assay is described as follows: Kill switch cell viability (phase contrast). The note with it: 100 nM simeprevir, wt kill switch. As to the method:
as §1, §2

Assay [3] has as its system Caspase 3 activity in kill switch-transduced HT29 cells. The assay is described as follows: Kill switch Caspase 3 functional assay. The note with it: 10 nM simeprevir, relative to non-transduced cells. As to the method:
as §1
(§3) Functional Caspase 9 activates Caspase 3, and this proteolytic activity can be determined using cleavage of non-fluorescent substrate DEVD-AMC into cleavage products DEVD and fluorescent AMC, such that AMC fluorescence signal at 430 nm is proportional to Caspase 3 activity. For the Caspase 3 assay, cells were plated in duplicate onto 6 well tissue-culture treated plates. 24 h later, one of the duplicate wells was treated with 10 nM simeprevir for 3 h. Cells lysates were analysed in triplicate using a Caspase 3 assay from BD Biosciences according to manufacturer's instruction with the modification that total protein input was normalised to 50 μg by BCA assay (LifeTechnologies). Fluorescence was determined on an Envision plate reader (PerkinElmer), Ex: 380 nm, Em: 430 nm. For quantification, RFU (raw fluorescence value) for wells that contained only the assay substrate were subtracted from all RFU derived from assay samples. Results were normalised to non-transduced, simeprevir-treated cells. Analysis was performed in Prism (GraphPad) using a One-Way-Anova followed by multiple comparisons.

The test system of assay [4] is Caspase 3 activity in kill switch-transduced HCT116 cells. The assay is described as follows: Kill switch Caspase 3 functional assay. The note with it: 10 nM simeprevir, relative to non-transduced cells. As to the method: as §1, §3
The test system of assay [5] is HEK293 cells stably expressing the PRSIM-based kill switch. The assay is described as follows: Kill switch cell viability (phase contrast). The settings on record: 100 nM simeprevir. Here is the method:
Lentiviral particles encoding the kill switch fusion protein (SEQ ID NO: 223) or kill switch S196A mutant fusion protein (SEQ ID NO: 230) were generated using pPACKH1 HIV lentiviral packaging kit (Systems Bioscience), according to manufacturer's instructions. HEK293 cells were transduced for 24 h in the presence of 8 μg/ml polybrene after which cells were changed into fresh growth medium (DMEM+10% foetal bovine serum+1% Non-essential amino acids). 24 h later transduced cells were selected by addition of 2 μg/ml puromycin for 5 days. Before functional testing, transduced cell pools were FACS sorted based on GFP fluorescence to isolate high expressing cell line pools and single cell clones.
as §2

Assay [6] deals with iPSC single-cell clones with B2M-targeted kill switch. The assay is described as follows: Real-time cell analysis (RTCA) of kill switch activity in iPS cells. The settings on record: 1 nM simeprevir. The text has this: A stable induced pluripotency stem cell (iPSC) line (a single clone (B-3/1F1) derived from the fibroblast cells of a healthy human donor from Research Specimen Collection Program of Astrazeneca) stably expressing the simeprevir-inducible kill switch was generated using CRISPR/Cas9 technology, using AAV-encoded DNA as template for targeted integration into the β2 microglobulin (B2M) locus.
The donor construct (FIG. 33A) encoding the PRSIM-based kill switch (SEQ ID 223) was synthesized and purchased from GenScript, Inc. and was subcloned into an AAV shuttle plasmid backbone. The donor construct was packaged into adeno-associated viral (AAV) particles; briefly, the donor plasmid was co-transfected with two helper plasmids, pAd5Helper and pR2C6, encoding adenoviral components essential for AAV replication and AAV2 replication (rep)/AAV6 capsid (cap) proteins respectively. After 72 hours, the cells were collected and were disrupted by freeze-thawing. The cell lysate was digested with Benzonase (100 U/ml) for 1 hour at 37° C. and were centrifugated. The vector-containing supernatant was collected and applied to Iodixanol gradient followed by ultracentrifugation. After ultracentrifugation, the vector containing solution was collected and washed with 20 mL PBS in a centrifugal concentrator tube for 3 times. Finally, the solution was concentrated to 1 mL. […]

Each structure is given as a SMILES string.

In the case of `COc1ccc2c(O[C@@H]3C[C@H]4C(=O)N[C@]5(C(=O)NS(=O)(=O)C6CC6)C[C@H]5/C=C\CCCCN(C)C(=O)[C@@H]4C3)cc(-c3nc(C(C)C)cs3)nc2c1C` [simeprevir], the cell death entry in assay [1], in assay [2] and in assay [5] (wt kill switch) was “rapid cell death” in each case. For the same compound, the “Caspase 3 activity” value in assay [3] and in assay [4] was “significantly (p<0.0001) up-regulated” throughout. The cell killing entry in assay [5] (kill switch S196A) is reported as “rapid cell killing in a timeframe comparable to the wt kill switch”. Moreover, the cell proliferation index result is “dramatic reduction in cell proliferation index after 5 hours” in assay [6] (clones encoding the kill switch) and “continued to proliferate” in assay [6] (parental iPSC cells).
